These results are taken from patent US20110306638A1, “BENZISOXAZOLE PIPERIDINYL DERIVATIVES, PHARMACEUTICAL COMPOSITIONS COMPRISING THE DERIVATIVES AND THEIR USE” (NHWA PHARMA. CORPORATION, priority 2008, published 2011).

For data set [1], the system named is Salmonella typhimurium histidine auxotroph mutants TA97, TA98, TA100 and TA102. Description: Bacterial reverse mutation test (Ames test). It counts as cell-based. Particulars: 5-5000 μg/plate, −S9 and +S9. On the procedure: Bacterial reverse mutation test on compound I-20 was performed on Salmonella typhimurium histidine auxotroph mutants TA97, TA98, TA100 and TA102 (purchased from MolTox company) using conventional procedures of Ames test.
Observation period: colony counting was done 48 hours after cultivation at 37° C.
Drug solutions with different concentrations were prepared with double distilled water, and the doses were 5, 50, 500, 1000, 5000 μg/plate.
Direct effect of the test drug in the absence of metabolic activity was determined by standard plate incorporation assay. The composition of the test top layer was: 2.0 ml top layer, 0.1 ml drug solution, 0.1 ml bacteria solution and 0.5 ml phosphate buffer.
Pre-incubation was used in the determination of the drug's mutagenic effect in the presence of metabolic activity. The composition of the test top layer is: 2.0 ml top layer, 0.1 ml drug solution, 0.1 ml bacteria solution and 0.5 ml S9 mix.
The resulting drug solution, bacterial solution and S9 mix were first incubated at 35° C. for 30 min while shaking, and then tested according to standard plate incorporation assay. Each dose was tested in three plates, each mutant was tested in the absence or presence of metabolic activity (−S9 or +S9) and repeated twice, the number of revertant colonies was calculated as x±SD.
For orientation: In the Ames test, an excess of revertant colonies over the control signals mutagenicity.

For the next data set, the system named is Kunming mice. In words: Hot-plate test in mice. It is filed as in vivo. Particulars: 1 h post dose. On the procedure:
Kunming mice, SPF KM mice were purchased from […] SLAC LABORATORY ANIMAL CO. LTD and kept in normal environment.
The compounds were dissolved in water for injection at a concentration of 4 mg/ml, 2 mg/ml and 1 mg/ml and were given subcutaneously to animals.
Three different doses (10, 20, and 40 mg/kg) were administered to the test groups.
Morphine was used as a positive control and hot plate test was used.
30-40 mice (half male and half female) weighed from 18 to 23 gram were used. First, each mouse was placed on a hot plat at 55° C. to determine basic pain threshold for 2-3 times. Those animals with basic pain threshold of 5-30 s were qualified, unqualified mice were not used. 30 qualified mice were divided into five groups, including negative control group, positive control group, low-dose group, medium-dose group and high-dose group:
Mice in test groups received test sample solution (10 mg/kg, 20 mg/kg, 40 mg/kg) via subcutaneous injection in the neck. Positive control group received subcutaneous injection of morphine (2 mg/kg). One hour later, pain threshold values were determined for mice in each group as post-drug pain threshold. Percentage increase in pain threshold was calculated according to the following equation: […]
For orientation: Hot-plate and tail-flick tests time the reaction to a heat stimulus.

Marks after values point to notes of the source that are not given here.

Regarding `N#Cc1ccc2ccn(CCCCN3CCC(c4noc5cc(F)ccc45)CC3)c2c1` [II-9, 1-(4-(4-(6-fluorobenzo[d]isoxazol-3-yl)piperidin-1-yl)butyl)-1H-indole-6-carbonitrile], the Ames test result in data set [1] was “negative”. For the same compound, the “Percentage increase in pain threshold” value is listed as 97.98* % in the data set with Kunming mice (10 mg/kg S.c.), 220.49** % in the data set on Kunming mice (20 mg/kg S.c.) and 229.39** % in the data set on Kunming mice (40 mg/kg S.c.).
